22 molecules from patent publication US8772286B2, “MK2 inhibitors” (Merck Sharp & Dohme B.V., priority 2009, dated 2014) can be followed below.

The target of data set [1] is T1, MK2 enzyme (Homo sapiens, UniProt P49137).
T1 construct: MK2 enzyme (active enzyme (peptide 46-end (Millipore))); purchased Millipore
Kind of data set: MK2 enzyme activity, IMAP fluorescence polarization assay. It is filed as biochemical. In outline: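 Enzyme kept in KR buffer (10 mM Tris-HCl, 10 mM MgCl2, 0.01% Tween-20, 2 mM DTT, pH 7.2) and acting on a fluorescein-labeled peptide substrate; final compound range 10 μM to 0.316 nM. After 60 min at room temperature, FP at 535 nm was read. Signal as percent of the with/without-ATP control difference, and EC50 by curve fit.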
On the technique in general: Polarisation of emitted light reports the rotation of a fluorescent probe.

Data set [2] is described as follows: Solubility determination of MK2 inhibitors (kinetic aqueous solubility, UPLC). It counts as physicochemical. The settings on record: aqueous buffer (system solution from pION inc.), 22 °C, pH 7.4, aqueous buffer, kinetic from dmso stock. In outline: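 Kinetic shake-flask solubility (mg/L) at pH 7.4, room temperature (21-23° C.), 1% final DMSO from 10 mM DMSO stock, duplicates. Shaken 24 h, filtered (0.45 um), 1-propanol added to filtrate; dissolved compound quantified by UPLC-UV against external DMSO calibration line of the same compound.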

The mark [3] stands for this setting: MK2 IMAP assay, 1 μM ATP, 30 min pre-incubation, 2 h room temperature, read-out: pEC50 value (converted).
[4] abbreviates: pH 7.4, room temperature, about 1% DMSO, 24 h shaking, read-out: solubility.
[5] abbreviates: Table 1, compound of Formula (I) with spiro ring, MK2 IMAP assay, read-out: pEC50, Formula (I) (converted).
The mark [6] stands for this setting: Table 1, compound of Formula (I) with spiro ring, pH 7.4, read-out: Solubility pH 7.4 (mg/L), Formula (I).

Values after ≈ are worked out from the molar mass of the structure shown. Where two headings read alike, the source gives them in different places.

T1 sequence (P49137 46-400 limits assumed): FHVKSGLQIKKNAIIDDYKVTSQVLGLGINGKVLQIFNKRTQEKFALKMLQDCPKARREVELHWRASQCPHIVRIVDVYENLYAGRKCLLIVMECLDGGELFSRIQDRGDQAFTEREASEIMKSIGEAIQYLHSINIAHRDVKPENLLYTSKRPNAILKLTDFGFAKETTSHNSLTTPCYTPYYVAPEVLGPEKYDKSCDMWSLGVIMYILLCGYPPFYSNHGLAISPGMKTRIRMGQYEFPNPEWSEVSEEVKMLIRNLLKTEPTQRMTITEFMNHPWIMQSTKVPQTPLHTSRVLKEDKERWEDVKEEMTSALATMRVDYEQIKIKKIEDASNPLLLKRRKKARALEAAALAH

Turning to `O=C1NCC2(CCNCC2)c2[nH]c(-c3ccnc(-c4cccc(F)c4)n3)cc21` [1—5, 2′-(2-(3-fluorophenyl)pyrimidin-4-yl)-5′,6′-dihydrospiro[piperidine-4,7′-pyrrolo[3,2-c]pyridin]-4′(1′H)-one], the EC50 in data set [1] (setting [3]) was 3.16 to 31.6 nM. In addition, in data set [2] (setting [4]), the solubility at 24 h lay within 20 to 50 mg/L (≈ 53 to 132 µM).
In the same order, the values of `O=C1NCC2(CCNCC2)c2[nH]c(-c3ccnc(-c4ccc5ccccc5c4)n3)cc21` [1—24, 2′-(2-(naphthalen-2-yl)pyrimidin-4-yl)-5′,6′-dihydrospiro[piperidine-4,7′-pyrrolo[3,2-c]pyridin]-4′(1′H)-one] are 3.16 to 31.6 nM and at least 50 mg/L.
`CC(=O)c1ccc(-c2nccc(-c3cc4c([nH]3)CCNC4=O)n2)cc1` [16_8 Formula (XV)]: in data set [1] (Table 1, comparison compound of Formula (XV) without spiro ring, MK2 IMAP assay, read-out: pEC50, Formula (XV) (converted)), the EC50 is 126 nM. In addition, the solubility at 24 h in data set [2] (Table 1, comparison compound of Formula (XV) without spiro ring, pH 7.4, read-out: Solubility pH 7.4 (mg/L), Formula (XV)) was determined as 3 mg/L.
For the molecule `O=C1NCC2(CCNCC2)c2[nH]c(-c3ccnc(-c4ccc(C(F)(F)F)c(Cl)c4)n3)cc21` [1—10, 2′-(2-(3-chloro-4-(trifluoromethyl)phenyl)pyrimidin-4-yl)-5′,6′-dihydrospiro[piperidine-4,7′-pyrrolo[3,2-c]pyridin]-4′(1′H)-one], in data set [1] (setting [3]), the EC50 is 3.16 to 31.6 nM. In addition, in data set [2] (setting [4]), the solubility at 24 h was at least 50 mg/L.
Regarding `O=C1NCC2(CCNCC2)c2[nH]c(-c3ccnc(-c4cc5ccccc5o4)n3)cc21` [16_6 Formula (I)], in data set [1] (setting [5]), the EC50 was 6.31 nM. Moreover, in data set [2] (setting [6]), the solubility at 24 h was 84 mg/L.
`O=C(Nc1nccc(-c2cc3c([nH]2)C2(CCCNC2)CNC3=O)n1)c1ccc(C(F)(F)F)cc1` (centres unmarked) [Example 13—1, N-(4-(4′-oxo-1′,4′,5′,6′-tetrahydrospiro[piperidine-3,7′-pyrrolo[3,2-c]pyridine]-2′-yl)pyrimidin-2-yl)-4-(trifluoromethyl)benzamide]: the EC50 in data set [1] (setting [3]) is 31.6 to 316 nM. Also, the solubility at 24 h in data set [2] (setting [4]) lay within 20 to 50 mg/L (≈ 42.5 to 106 µM).
For the molecule `O=C1NCC2(CCNCC2)c2[nH]c(-c3nc(-c4ccc(Cl)cc4F)ncc3F)cc21` [4—5, 2′-(2-(4-chloro-2-fluorophenyl)-5-fluoropyrimidin-4-yl)-5′,6′-dihydrospiro[piperidine-4,7′-pyrrolo[3,2-c]pyridin]-4′(1′H)-one], in data set [1] (setting [3]), the EC50 was 3.16 to 31.6 nM. The solubility at 24 h in data set [2] (setting [4]) was at least 50 mg/L.
`O=C1NCC2(CCNCC2)c2[nH]c(-c3ccnc(-c4cc(Cl)cc(Cl)c4)n3)cc21` [1—25, 2′-(2-(3,5-dichlorophenyl)pyrimidin-4-yl)-5′,6′-dihydrospiro[piperidine-4,7′-pyrrolo[3,2-c]pyridin]-4′(1′H)-one]: the EC50 in data set [1] (setting [3]) was 3.16 to 31.6 nM. For the same molecule, the solubility at 24 h in data set [2] (setting [4]) is at least 50 mg/L.
With `CCN1CCC2(CC1)CNC(=O)c1cc(-c3ccnc(-c4cc5ccccc5o4)n3)[nH]c12` [2—2, 2′-(2-(benzofuran-2-yl)pyrimidin-4-yl)-1-ethyl-5′,6′-dihydrospiro[piperidine-4,7′-pyrrolo[3,2-c]pyridin]-4(1′H)-one], the EC50 in data set [1] lay in the range of 31.6 to 316 nM. Also, in data set [2] (setting [4]), the solubility at 24 h was at least 50 mg/L.
As for `O=C1NCC2(CCNCC2)c2[nH]c(-c3ccnc(-c4cnc(NC5CCCC5)nc4)n3)cc21` [11—1, 2′-(2′-(cyclopentylamino)-2,5′-bipyrimidin-4-yl)-5′,6′-dihydrospiro[piperidine-4,7′-pyrrolo[3,2-c]pyridin]-4′(1′H)-one], the EC50 in data set [1] (setting [3]) is at most 3.16 nM. Besides, in data set [2] (setting [4]), the solubility at 24 h is at least 50 mg/L.
As to `O=C1NCC2(CCOCC2)c2[nH]c(-c3ccnc(-c4ccc5c(c4)OCO5)n3)cc21` [17_1 Formula (XVI)], the EC50 in data set [1] (Table 2, comparison compound of Formula (XVI), spiro ring without amine, MK2 IMAP assay, read-out: pEC50, Formula (XVI) (converted)) was 794 nM. Besides, in data set [2] (Table 2, comparison compound of Formula (XVI), spiro ring without amine, pH 7.4, read-out: Solubility pH 7.4 (mg/L), Formula (XVI)), the solubility at 24 h was determined as 2 mg/L.
Turning to `O=C1NCC2(CCNCC2)c2[nH]c(-c3ccnc(-c4ccccc4F)n3)cc21` [16_4 Formula (I)], in data set [1] (setting [5]), the EC50 was 31.6 nM. The solubility at 24 h in data set [2] (setting [6]) came out at 36 mg/L.
Consider `NCCN1CCC2(CC1)CNC(=O)c1cc(-c3ccnc(-c4cc5ccccc5o4)n3)[nH]c12` [Example 2—3, 1-(2-aminoethyl)-2′-(2-(benzofuran-2-yl)pyrimidin-4-yl)-5′,6′-dihydrospiro[piperidine-4,7′-pyrrolo[3,2-c]pyridin]-4′(1′H)-one], for which, in data set [1] (setting [3]), the EC50 is 31.6 to 316 nM. The solubility at 24 h in data set [2] (setting [4]) was at least 50 mg/L.
For `O=C1NCC2(CCNCC2)c2[nH]c(-c3nc(-c4cc5ccccc5o4)ncc3F)cc21` [Example 4—1, 2′-(2-(benzofuran-2-yl)-5-fluoropyrimidin-4-yl)-5′,6′-dihydrospiro[piperidine-4,7′-pyrrolo[3,2-c]pyridin]-4′(1′H)-one], the EC50 in data set [1] (setting [3]) is 3.16 to 31.6 nM. Besides, the solubility at 24 h in data set [2] (setting [4]) is 20 to 50 mg/L (≈ 47.9 to 120 µM).
`O=C1NCC2(CCNCC2)c2[nH]c(-c3ccnc(-c4ccc5oc6ccccc6c5c4)n3)cc21` [1—26, 2′-(2-(dibenzo[b,d]furan-2-yl)pyrimidin-4-yl)-5′,6′-dihydrospiro[piperidine-4,7′-pyrrolo[3,2-c]pyridin]-4′(1′H)-one]: the EC50 in data set [1] (setting [3]) was 31.6 to 316 nM. The solubility at 24 h in data set [2] (setting [4]) lay within 20 to 50 mg/L (≈ 44.5 to 111 µM).
Take `O=C1NCC2(CCNCC2)c2[nH]c(-c3ccnc(-c4cc(C(F)(F)F)cc(C(F)(F)F)c4)n3)cc21` [1—34, 2′-(2-(3,5-bis(trifluoromethyl)phenyl)pyrimidin-4-yl)-5′,6′-dihydrospiro[piperidine-4,7′-pyrrolo[3,2-c]pyridin]-4′(1′H)-one]: in data set [1] (setting [3]), the EC50 is 31.6 to 316 nM. Besides, in data set [2] (setting [4]), the solubility at 24 h is at least 50 mg/L.
In the case of `O=C1NCC2(CCNCC2)c2[nH]c(-c3ccnc(-c4cnc5ccccc5c4)c3)cc21` [8—2, 2′-(2-(quinolin-3-yl)pyridin-4-yl)-5′,6′-dihydrospiro[piperidine-4,7′-pyrrolo[3,2-c]pyridin]-4′(1′H)-one], the EC50 in data set [1] (setting [3]) is at most 3.16 nM. Further, the solubility at 24 h in data set [2] (setting [4]) was in the range of 20 to 50 mg/L (≈ 48.8 to 122 µM).
On to `O=C1NCC2(CCNCC2)c2[nH]c(-c3ccnc(-c4cnc5ccccc5c4)c3)cc21` [16_1 Formula (I)], for which the EC50 in data set [1] (setting [5]) is 1.26 nM. Besides, in data set [2] (setting [6]), the solubility at 24 h was found to be 35 mg/L.
In the case of `O=C1NCC2(CCNCC2)c2[nH]c(-c3ccnc(-c4ccc5c(c4)OCO5)n3)cc21` [1—7, 2′-(2-(benzo[d][1,3]dioxol-5-yl)pyrimidin-4-yl)-5′,6′-dihydrospiro[piperidine-4,7′-pyrrolo[3,2-c]pyridin]-4′(1′H)-one], in data set [1] (setting [3]), the EC50 is 3.16 to 31.6 nM. The solubility at 24 h in data set [2] (setting [4]) lay in the range of 20 to 50 mg/L (≈ 49.6 to 124 µM).
As to `O=C(NC1CCCCC1)c1ccc(-c2nccc(-c3cc4c([nH]3)C3(CCNCC3)CNC4=O)n2)cc1` [1—36, N-cyclohexyl-4-(4-(4′-oxo-1′,4′,5′,6′-tetrahydrospiro[piperidine-4,7′-pyrrolo[3,2-c]pyridine]-2′-yl)pyrimidin-2-yl)benzamide], the EC50 in data set [1] (setting [3]) is 3.16 to 31.6 nM. Also, the solubility at 24 h in data set [2] (setting [4]) is at least 50 mg/L.
Consider `O=C1NCC2(CCNCC2)c2[nH]c(-c3ccnc(-c4cccc(-c5ccccc5)c4)n3)cc21` [1—33, 2′-(2-(biphenyl-3-yl)pyrimidin-4-yl)-5′,6′-dihydrospiro[piperidine-4,7′-pyrrolo[3,2-c]pyridin]-4′(1′H)-one], for which the EC50 in data set [1] (setting [3]) was 31.6 to 316 nM. Moreover, in data set [2] (setting [4]), the solubility at 24 h was at least 50 mg/L.
For `CC(C)(C)c1ccc(-c2nccc(-c3cc4c([nH]3)C3(CCNCC3)CNC4=O)n2)cc1` [1—22, 2′-(2-(4-tert-butylphenyl)pyrimidin-4-yl)-5′,6′-dihydrospiro[piperidine-4,7′-pyrrolo[3,2-c]pyridin]-4′(1′H)-one], the EC50 in data set [1] (setting [3]) was 3.16 to 31.6 nM. Besides, the solubility at 24 h in data set [2] (setting [4]) is at least 50 mg/L.
